Assay results reported in ChEMBL document CHEMBL1136414, “Structure-activity relationship of linear peptide Bu-His-DPhe-Arg-Trp-Gly-NH(2) at the human melanocortin-1 and -4 receptors: histidine substitution” (Bioorg Med Chem Lett, 2003).

Legend:
Melanocortin receptor 4 [1] = target: T1, Melanocortin receptor 4 (Homo sapiens, UniProt P32245); assay: Agonist activity against human melanocortin receptor hMC4R; type: functional
Melanocortin receptor 5 [2] = target: T2, Melanocortin receptor 5 (Homo sapiens, UniProt P33032); assay: Binding affinity towards human melanocortin receptor hMC5R by using radioligand NDP-MSH
[3] = target: T3, Melanocyte-stimulating hormone receptor (Homo sapiens, UniProt Q01726); assay: (§1) Agonist activity against human melanocortin receptor hMC1R at 50% maximum cAMP accumulation; type: functional
Target sequence in this assay (Q01726 whole entry): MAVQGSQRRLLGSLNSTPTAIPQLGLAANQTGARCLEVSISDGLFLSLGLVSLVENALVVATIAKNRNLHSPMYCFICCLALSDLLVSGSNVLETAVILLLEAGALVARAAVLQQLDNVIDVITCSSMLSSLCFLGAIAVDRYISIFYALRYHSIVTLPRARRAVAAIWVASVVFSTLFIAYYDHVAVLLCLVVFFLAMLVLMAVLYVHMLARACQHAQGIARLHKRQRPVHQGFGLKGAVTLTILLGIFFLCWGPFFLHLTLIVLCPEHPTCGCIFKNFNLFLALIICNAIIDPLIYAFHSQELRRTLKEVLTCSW

[4] = target: T3, Melanocyte-stimulating hormone receptor; assay: Binding affinity towards human melanocortin receptor hMC1R by using radioligand NDP-MSH
Target sequence in this assay (Q01726 whole entry): as above

Melanocortin receptor 3 [5] = target: T4, Melanocortin receptor 3 (Homo sapiens, UniProt P41968); assay: Binding affinity towards human melanocortin receptor hMC3R by using radioligand NDP-MSH
Melanocortin receptor 4 [6] = target: T1, Melanocortin receptor 4; assay: Binding affinity towards human melanocortin receptor hMC4R by using radioligand NDP-MSH
[7] = target: T3, Melanocyte-stimulating hormone receptor; assay: Agonist activity against human melanocortin receptor hMC1R; type: functional
Target sequence in this assay (Q01726 whole entry): as above

Melanocortin receptor 5 [8] = target: T2, Melanocortin receptor 5; assay: Agonist activity against human melanocortin receptor hMC5R measured as percent cAMP accumulation at the concentration of 50 uM; type: functional
Melanocortin receptor 3 [9] = target: T4, Melanocortin receptor 3; assay: Agonist activity against human melanocortin receptor hMC3R measured as percent cAMP accumulation at the concentration of 50 uM; type: functional
[10] = target: T3, Melanocyte-stimulating hormone receptor; assay: Percent inhibition of human melanocortin receptor hMC1R at the concentration of 50 uM
Target sequence in this assay (Q01726 whole entry, looked up): as the sequence (Q01726 whole entry) above

[11] = target: T3, Melanocyte-stimulating hormone receptor; assay: as §1; type: functional; remark: listed apart in the source
Target sequence in this assay (Q01726 whole entry, looked up): as the sequence (Q01726 whole entry) above

Melanocortin receptor 4 [12] = target: T1, Melanocortin receptor 4; assay: Percent inhibition of human melanocortin receptor hMC4R at the concentration of 50 uM
Melanocortin receptor 4 [13] = target: T1, Melanocortin receptor 4; assay: Binding affinity towards human melanocortin receptor hMC4R by using radioligand NDP-MSH; not determined

T1 sequence (P32245 whole entry): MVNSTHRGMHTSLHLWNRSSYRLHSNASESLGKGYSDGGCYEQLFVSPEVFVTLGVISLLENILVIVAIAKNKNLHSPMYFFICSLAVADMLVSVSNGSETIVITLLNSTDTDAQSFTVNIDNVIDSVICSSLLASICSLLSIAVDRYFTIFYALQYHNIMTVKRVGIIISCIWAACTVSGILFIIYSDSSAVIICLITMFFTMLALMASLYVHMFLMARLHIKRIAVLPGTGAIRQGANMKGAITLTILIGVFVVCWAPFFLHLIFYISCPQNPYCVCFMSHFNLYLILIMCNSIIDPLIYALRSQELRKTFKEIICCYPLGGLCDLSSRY
T4 sequence (P41968 whole entry): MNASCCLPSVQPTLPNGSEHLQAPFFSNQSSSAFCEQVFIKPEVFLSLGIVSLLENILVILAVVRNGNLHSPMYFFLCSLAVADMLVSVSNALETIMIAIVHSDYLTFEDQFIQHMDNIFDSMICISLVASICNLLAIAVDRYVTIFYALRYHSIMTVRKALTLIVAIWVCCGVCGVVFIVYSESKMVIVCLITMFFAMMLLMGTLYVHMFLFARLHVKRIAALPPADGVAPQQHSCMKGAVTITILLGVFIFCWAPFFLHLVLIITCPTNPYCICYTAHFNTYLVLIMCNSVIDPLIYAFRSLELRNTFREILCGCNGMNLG
T2 sequence (P33032 whole entry): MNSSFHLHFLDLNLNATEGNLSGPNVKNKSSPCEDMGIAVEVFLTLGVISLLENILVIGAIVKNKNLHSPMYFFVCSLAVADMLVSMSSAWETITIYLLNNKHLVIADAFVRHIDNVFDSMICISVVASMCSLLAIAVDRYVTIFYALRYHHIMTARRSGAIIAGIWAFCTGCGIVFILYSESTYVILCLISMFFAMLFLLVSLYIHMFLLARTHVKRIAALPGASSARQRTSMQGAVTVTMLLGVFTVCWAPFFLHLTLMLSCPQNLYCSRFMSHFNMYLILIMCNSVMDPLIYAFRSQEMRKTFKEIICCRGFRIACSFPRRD

| SMILES | EC50 (Melanocortin receptor 4 [1]) [µM] | EC50 [7] [µM] | also measured |
| --- | --- | --- | --- |
| CCCC(=O)N[C@@H](Cc1cnc[nH]1)C(=O)N[C@H](Cc1ccccc1)C(=O)N[C@@H](CCCNC(=N)N)C(=O)N[C@@H](Cc1c[nH]c2ccccc12)C(=O)NCC(N)=O | 0.02 | 0.01 | IC50 (Melanocortin receptor 5 [2]): 13.3 µM; EC50 [3]: 0.01 µM; IC50 [4]: 0.58 µM; IC50 (Melanocortin receptor 3 [5]): 4 µM; IC50 (Melanocortin receptor 4 [6]): 0.15 µM |
| CCCC(=O)N[C@@H](Cc1c[nH]cn1)C(=O)N[C@H](Cc1ccccc1)C(=O)N[C@@H](CCCN=C(N)N)C(=O)N[C@@H](Cc1c[nH]c2ccccc12)C(=O)NCC(N)=O |  |  | Accumulation (Melanocortin receptor 5 [8]): 0%; Accumulation (Melanocortin receptor 3 [9]): 0% |
| CCCCC(=O)NC1(C(=O)NC(Cc2ccccc2)C(=O)N[C@@H](CCCNC(=N)N)C(=O)N[C@@H](Cc2c[nH]c3ccccc23)C(=O)NCC(N)=O)CCc2c(C)cccc2C1 (single isomer, unassigned) | 0.035 | 1.22 |  |
| CCCCC(=O)NC1(C(=O)NC(Cc2ccccc2)C(=O)N[C@@H](CCCNC(=N)N)C(=O)N[C@@H](Cc2c[nH]c3ccccc23)C(=O)NCC(N)=O)CCc2c(cccc2OC(C)C)C1 (single isomer, unassigned) | 0.13 | 0.68 |  |
| CCCCC(=O)NC1(C(=O)NC(Cc2ccccc2)C(=O)N[C@@H](CCCNC(=N)N)C(=O)N[C@@H](Cc2c[nH]c3ccccc23)C(=O)NCC(N)=O)CCc2c(CC)cccc2C1 (single isomer, unassigned) | 0.024 | 0.195 |  |
| CCCCC(=O)NC1(C(=O)NC(Cc2ccccc2)C(=O)N[C@@H](CCCN=C(N)N)C(=O)N[C@@H](Cc2c[nH]c3ccccc23)C(=O)NCC(N)=O)CCc2c(Br)cccc2C1 (single isomer, unassigned) | 0.033 |  | Accumulation (Melanocortin receptor 5 [8]): 0%; inhibition [10]: 75%; IC50 [4]: 4.9 µM; IC50 (Melanocortin receptor 4 [6]): 0.2 µM; Accumulation (Melanocortin receptor 3 [9]): 0%; Accumulation [11]: 75% |
| CCCC(=O)N[C@@H](C)C(=O)NC(Cc1ccccc1)C(=O)N[C@@H](CCCN=C(N)N)C(=O)N[C@@H](Cc1c[nH]c2ccccc12)C(=O)NCC(N)=O (single isomer, unassigned) | 0.18 | 0.23 |  |
| CCCCC(=O)NC1(C(=O)NC(Cc2ccccc2)C(=O)N[C@@H](CCCNC(=N)N)C(=O)N[C@@H](Cc2c[nH]c3ccccc23)C(=O)NCC(N)=O)CCc2c(Cl)cccc2C1 (single isomer, unassigned) | 0.6 | 1.4 |  |
| CCCCC(=O)NC1(C(=O)NC(Cc2ccccc2)C(=O)N[C@@H](CCCNC(=N)N)C(=O)N[C@@H](Cc2c[nH]c3ccccc23)C(=O)NCC(N)=O)CCc2c(cccc2OC)C1 (single isomer, unassigned) | 0.09 | 1.48 |  |
| CCCCC(=O)NC1(C(=O)NC(Cc2ccccc2)C(=O)N[C@@H](CCCNC(=N)N)C(=O)N[C@@H](Cc2c[nH]c3ccccc23)C(=O)NCC(N)=O)CCc2c(cccc2C(C)C)C1 (single isomer, unassigned) | 0.013 | 0.295 |  |
| CCCCC(=O)NC1(C(=O)NC(Cc2ccccc2)C(=O)N[C@@H](CCCN=C(N)N)C(=O)N[C@@H](Cc2c[nH]c3ccccc23)C(=O)NCC(N)=O)CCc2cccc(Br)c2C1 (single isomer, unassigned) |  | 1.71 | inhibition (Melanocortin receptor 4 [12]): 0% |
| CCCCC(=O)NC1(C(=O)NC(Cc2ccccc2)C(=O)N[C@@H](CCCNC(=N)N)C(=O)N[C@@H](Cc2c[nH]c3ccccc23)C(=O)NCC(N)=O)CCc2c(cccc2OCC)C1 (single isomer, unassigned) | 0.12 | 0.99 |  |
| CCCCC(=O)NC1(C(=O)NC(Cc2ccccc2)C(=O)N[C@@H](CCCN=C(N)N)C(=O)N[C@@H](Cc2c[nH]c3ccccc23)C(=O)NCC(N)=O)CCc2ccc(Br)cc2C1 (single isomer, unassigned) |  |  | inhibition [10]: 0%; inhibition (Melanocortin receptor 4 [12]): 40% |
| CCCCC(=O)NC1(C(=O)NC(Cc2ccccc2)C(=O)N[C@@H](CCCN=C(N)N)C(=O)N[C@@H](Cc2c[nH]c3ccccc23)C(=O)NCC(N)=O)CCc2cc(Br)ccc2C1 (single isomer, unassigned; form 1) [listing 1 of 2 here] |  | 3.38 |  |
| CCCCC(=O)NC1(C(=O)NC(Cc2ccccc2)C(=O)N[C@@H](CCCN=C(N)N)C(=O)N[C@@H](Cc2c[nH]c3ccccc23)C(=O)NCC(N)=O)CCc2cc(Br)ccc2C1 (single isomer, unassigned; form 1) [listing 2 of 2 here] |  |  | inhibition (Melanocortin receptor 4 [12]): 60% |
| CCCCC(=O)NC1(C(=O)NC(Cc2ccccc2)C(=O)N[C@@H](CCCN=C(N)N)C(=O)N[C@@H](Cc2c[nH]c3ccccc23)C(=O)NCC(N)=O)CCc2cc(Br)ccc2C1 (single isomer, unassigned; form 2) [listing 1 of 2 here] |  | 4.63 |  |
| CCCCC(=O)NC1(C(=O)NC(Cc2ccccc2)C(=O)N[C@@H](CCCN=C(N)N)C(=O)N[C@@H](Cc2c[nH]c3ccccc23)C(=O)NCC(N)=O)CCc2cc(Br)ccc2C1 (single isomer, unassigned; form 2) [listing 2 of 2 here] |  |  | inhibition (Melanocortin receptor 4 [12]): 50% |
| CCCCC(=O)NC1(C(=O)N[C@H](Cc2ccccc2)C(=O)N[C@@H](CCCNC(=N)N)C(=O)N[C@@H](Cc2c[nH]c3ccccc23)C(=O)NCC(N)=O)CCc2c(cccc2N(C)C)C1 (single isomer, unassigned; isomer 1) | 0.002 | 0.94 | EC50 [3]: 0.94 µM; IC50 [4]: 25.5 µM; IC50 (Melanocortin receptor 4 [6]): 0.025 µM |
| CCCCC(=O)NC1(C(=O)N[C@H](Cc2ccccc2)C(=O)N[C@@H](CCCN=C(N)N)C(=O)N[C@@H](Cc2c[nH]c3ccccc23)C(=O)NCC(N)=O)CCc2c(cccc2N(C)C)C1 (single isomer, unassigned; isomer 1) |  |  | Accumulation (Melanocortin receptor 5 [8]): 0%; Accumulation (Melanocortin receptor 3 [9]): 0% |
| CCCCC(=O)NC1(C(=O)N[C@H](Cc2ccccc2)C(=O)N[C@@H](CCCNC(=N)N)C(=O)N[C@@H](Cc2c[nH]c3ccccc23)C(=O)NCC(N)=O)CCc2c(Br)cccc2C1 (single isomer, unassigned; isomer 2) | 0.035 |  | IC50 [4]: 5.1 µM; IC50 (Melanocortin receptor 4 [13]): 0.105 µM |
| CCCCC(=O)NC1(C(=O)N[C@H](Cc2ccccc2)C(=O)N[C@@H](CCCNC(=N)N)C(=O)N[C@@H](Cc2c[nH]c3ccccc23)C(=O)NCC(N)=O)CCc2c(cccc2N(C)C)C1 (single isomer, unassigned; isomer 2) | 0.016 | 1.85 | EC50 [3]: 1.85 µM; IC50 [4]: 21.7 µM; IC50 (Melanocortin receptor 4 [6]): 0.15 µM |
| CCCCC(=O)NC1(C(=O)N[C@H](Cc2ccccc2)C(=O)N[C@@H](CCCNC(=N)N)C(=O)N[C@@H](Cc2c[nH]c3ccccc23)C(=O)NCC(N)=O)CCc2c(Cl)cccc2C1 (single isomer, unassigned; isomer 2) | 0.13 | 0.89 |  |
| CCCCC(=O)NC1(C(=O)N[C@H](Cc2ccccc2)C(=O)N[C@@H](CCCN=C(N)N)C(=O)N[C@@H](Cc2c[nH]c3ccccc23)C(=O)NCC(N)=O)CCc2cccc(Br)c2C1 (single isomer, unassigned; isomer 2) |  | 2.91 | inhibition (Melanocortin receptor 4 [12]): 0% |
| CCCCC(=O)NC1(C(=O)N[C@H](Cc2ccccc2)C(=O)N[C@@H](CCCN=C(N)N)C(=O)N[C@@H](Cc2c[nH]c3ccccc23)C(=O)NCC(N)=O)CCc2c(Br)cccc2C1 (single isomer, unassigned; isomer 2) |  |  | Accumulation (Melanocortin receptor 5 [8]): 32%; inhibition [10]: 50%; Accumulation (Melanocortin receptor 3 [9]): 0% |
| CCCCC(=O)NC1(C(=O)N[C@H](Cc2ccccc2)C(=O)N[C@@H](CCCN=C(N)N)C(=O)N[C@@H](Cc2c[nH]c3ccccc23)C(=O)NCC(N)=O)CCc2c(cccc2N(C)C)C1 (single isomer, unassigned; isomer 2) |  |  | Accumulation (Melanocortin receptor 5 [8]): 24%; Accumulation (Melanocortin receptor 3 [9]): 0% |
| CCCCC(=O)N[C@]1(C(=O)N[C@H](Cc2ccccc2)C(=O)N[C@@H](CCCN=C(N)N)C(=O)N[C@@H](Cc2c[nH]c3ccccc23)C(=O)NCC(N)=O)CCc2ccccc2C1 (stereo in doubt; form 1) | 0.045 | 0.83 |  |
| CCCC(=O)N[C@@]1(C(=O)N[C@H](Cc2ccccc2)C(=O)N[C@@H](CCCN=C(N)N)C(=O)N[C@@H](Cc2c[nH]c3ccccc23)C(=O)NCC(N)=O)CCc2ccccc2C1 (stereo in doubt; form 1) | 0.29 | 4.38 |  |
| CCCCC(=O)N[C@]1(C(=O)N[C@H](Cc2ccccc2)C(=O)N[C@@H](CCCN=C(N)N)C(=O)N[C@@H](Cc2c[nH]c3ccccc23)C(=O)NCC(N)=O)CCc2ccccc2C1 (stereo in doubt; form 2) | 1 | 1.95 |  |
| CCCC(=O)N[C@@]1(C(=O)N[C@H](Cc2ccccc2)C(=O)N[C@@H](CCCN=C(N)N)C(=O)N[C@@H](Cc2c[nH]c3ccccc23)C(=O)NCC(N)=O)CCc2ccccc2C1 (stereo in doubt; form 2) | 2.94 | 5.64 |  |
